# Test results published in article PMC11973282, “RAS70 peptide targets multiforme glioblastoma by binding to the plasma membrane heat shock protein HSP70” (Frontiers in Oncology, 2025).
# Where a SMILES comes first, the peptide text is derived from it. [ ]: non-standard residue; d: D form. βAla = NCCC(=O)O
# What was measured:
# C6 (rat glioma) cells = assay: Flow cytometry of FITC-labeled peptide internalization, 24 h; assay type: cell-based; conditions: 50 μg/mL, M ± SE, 3 independent experiments
# Experimental: (§1) The binding of the TKD-sCy5, RAS70-sCy5, and NGL-RGD-sCy5 peptides were analyzed using a CytoFLEX flow cytometer (Beckman Coulter, USA). A single cell suspension of C6, GL261, T98G, U87, U251, ANI, IBD, TMS (0.15×10^6 cells in mL^-1) were incubated for 30 minutes on ice in the dark with peptides in concentration of 75 μg/mL, and then washed with cold PBS solution. Cells without peptides were used as controls. To evaluate incorporation of the fluorescently-labeled peptides for longer period of co-incubation of 24 h cells (C6, GL261, U87, U251) were treated with FITC-labeled peptides, then washed with PBS and assessed on a CytoFLEX flow cytometer (Beckman Coulter, USA). Following FACS analysis cell pellet was further evaluated employing confocal microscopy Leica TCS SP8 (Leica Microsystems, Germany).
# (§2) The incorporation of peptides over longer periods of co-incubation with brain tumor cells was additionally analyzed using a Cytomics FC500 flow cytometer (BeckmanCoulter, USA). Tumor cells (C6, GL261, U87, U251) were incubated with peptides (concentration 50 μg/mL) for 24 hours, washed with PBS. Internalization of FITC-labeled peptides was assessed by determining the mean fluorescence intensity (MFI). According to the study data ( Figure 6A ), it was shown that TKD peptide accumulated in all cell lines – 2120 ± 152 (C6), 2099 ± 107 (GL261), 2145 ± 189 (U87), 2373 ± 201 (U251) compared to the control scramble peptide (NGL) – 378 ± 48 (C6), 344 ± 57 (GL261), 301 ± 66 (U87), 313 ± 56 (U251) (P<0.001). […] Following FACS analysis the cell pellet was collected and evaluated for peptides cell uptake employing confocal microscopy ( Figure 6B ). The obtained microscopy data confirmed higher accumulation of RAS70 peptide in studied cell lines as compared to TKD or scramble peptides.
# (§3) Figure 6 Evaluation of the mHsp70-targeting peptides internalization by glioma cells. (A) Flow cytometric evaluation of FITC-labeled peptide accumulation in tumor cell lines (rat glioma C6, mouse glioma GL261, human glioblastoma U87 and U251) after co-incubation for 24 hours. […] (B) Confocal microscopy assessment of FITC-labeled peptide accumulation in tumor cell lines (rat glioma C6, mouse glioma GL261, human glioblastoma U87 and U251) after co-incubation for 24 hours. […] (C) Analysis of the peptides uptake by human U87 glioblastoma cells following co-incubation for 24 hours.
# [1] = test system: GL261 (mouse glioma) cells; assay: as above; assay type: cell-based; conditions: 50 μg/mL, M ± SE, 3 independent experiments
# Experimental: as §1, §2, §3
# [2] = test system: human glioblastoma U251 cells; assay: as above; assay type: cell-based; conditions: 50 μg/mL, M ± SE, 3 independent experiments
# Experimental: as §1, §2, §3
# [3] = test system: human U87 glioblastoma cells; assay: Flow cytometry of FITC-labeled peptide internalization, 24 h (also with antibody pre-treatment); assay type: cell-based
# Experimental: as §1, §2, §3
# To evaluate the mHsp70-mediated uptake of the peptides prior to co-incubation with either TKD or RAS70 peptides cells were pre-treated with anti-Hsp70 antibodies (SPA-810, SPA-815) that are known to target the membrane-bound chaperone on cancer cells ([37]). […] The tripeptide RGD (Arg-Gly-Asp) motif is known to bind to integrins, including αvβ3 and αvβ5 expressed on brain tumor cells and tumor endothelial cells ([38], [39]). […] As expected, we observed the decrease of NGL-RGD and RAS70 internalization by tumor cells but not of TKD or NGL peptides ( Figure 6C ).
# [4] = test system: U87 cells (lower chamber; HUVEC and astrocytes barrier); assay: Transwell BBB model, peptide passage and accumulation in tumor cells (also with antibody pre-treatment); assay type: in vitro ADME, human
# From the text: Fluorescently labeled cells were counted in the lower chamber.
# Next, we assessed the mHsp70- and integrin (αvβ3, αvβ5)-mediated penetration of the TKD and RAS70 via the BBB ( Figure 9B ). […] When anti-αvβ3 and anti-αvβ5 mAbs were employed, we detected the decrease of NGL-RGD and RAS70 penetration via the BBB but not the NGL and TKD peptides.
# [5] = test system: C6 cells (lower chamber; HUVEC and astrocytes barrier)
# Experimental: (§4) Then, a peptide labeled with a fluorescent label was introduced into the upper chamber and co-incubation was carried out for 12, 24 and 36 hours. At the end of the incubation, the tumor cells were washed with cold phosphate-buffered saline (PBS) and fixed with a 4% solution of paraformaldehyde in PBS. Nuclei were stained with 4’,6-diamidino-2-phenylindole (DAPI). Fluorescent images were obtained using a Leica TCS SP8 confocal microscope (Leica, Germany). To avoid possible cross-interference of different fluorochromes, images for DAPI and FITC were obtained using a sequential sample scanning method. Fluorescently labeled cells were counted in the lower chamber. To estimate the mHsp70-mediated uptake of chaperone-targeted peptides tumor cells prior to incubation were pre-treated with anti-Hsp70 monoclonal antibodies SPA-810 (1:250, Stressgen) and SPA-815 (1:250 Stressgen). To exclude integrin (αvβ3, αvβ5)-mediated penetration of RAS70 tumor cells prior to incubation with peptides were pre-treated with anti- αvβ3 (1:200 clone LM609, ZMS1030, Sigma-Aldrich, USA), -αvβ5 (1:200 clone P1F6, MAB1961Z, Sigma-Aldrich, USA) monoclonal antibodies.
# (§5) Then, a peptide labeled with a fluorescent dye (FITC) was introduced into the upper chamber and co-incubation was carried out for 12, 24 and 36 hours. At the end of the incubation, the tumor cells were washed with cold phosphate-buffered saline (PBS) and fixed with a 4% solution of paraformaldehyde in PBS. Nuclei were stained with 4’,6-diamidino-2-phenylindole (DAPI).
# (§6) Data from 3 independent experiments are presented as M ± SE. […] Data from 3 independent experiments are presented as M ± SE. ** p < 0.01 for testing mean expression levels.
# [6] = test system: GL261 cells (lower chamber; HUVEC and astrocytes barrier)
# Experimental: as §4, §5, §6
# [7] = test system: U251 cells (lower chamber; HUVEC and astrocytes barrier)
# Experimental: as §4, §5, §6
# [8] = test system: C6, GL261, and T98G cells; assay: MTT test, overall statement for all cell lines studied; conditions: fluorescently labeled peptides, 7.5, 75, 750 µg/mL, 24, 48 and 72 hours
# Experimental: 3-(4,5-dimethylthiazol-2-yl)-2,5-diphenyltetrazolium bromide (MTT) assay was performed to evaluate the cytotoxic effect of TKD-sCy5, RAS70-sCy5, and NGL-RGD-sCy5 peptides. The C6, GL261, and T98G cells were seeded in 96-well plates (Thermo Fisher Scientific, Waltham, USA) at concentration of 5*10^3 cells in 100 µL per well, plates were incubated at 37°C in 5% CO2. After 24 hours, peptides were added to the culture medium for final concentration of 7.5, 75, and 750 μg/mL; plates were incubated for 24, 48 and 72 hours. […] At the end of the incubation period, 1 mg/mL MTT solution was added for 4 hours and dissolved with DMSO. The absorbance was measured at 570 nm using Varioskan LUX Multimode Microplate Reader (Thermo Fisher Scientific, Waltham, USA).
# Subsequently, we analyzed the cytotoxic effect of the peptides (RAS70, TKD, NGL, NGL-RGD) using the MTT test at various peptides concentrations (7.5, 75, 750 µg/mL) and co-incubation times of 24, 48 and 72 hours.
Molecule,"mean fluorescence intensity (MFI), internalization of FITC-labeled peptide (C6 (rat glioma) cells)","mean fluorescence intensity (MFI), internalization of FITC-labeled peptide [1]","mean fluorescence intensity (MFI), internalization of FITC-labeled peptide [2]","mean fluorescence intensity (MFI), internalization of FITC-labeled peptide ([3]; U87, 50 μg/mL, 24 hours, flow cytometry, M ± SE, 3 independent experiments)","fluorescently labeled tumor cells in the lower chamber ([4]; transwell BBB model: HUVEC (5×10^5) and astrocytes (5×10^5) in upper chamber, U87 (1×10^4) in lower chamber, FITC-labeled peptide, 36 hours, confocal microscopy count, M ± SE, 3 independent experiments)","penetration via the BBB after combined anti-αvβ3, anti-αvβ5 and anti-Hsp70 mAbs ([4]; transwell, U87 cells, combined antibody treatment)",fluorescently labeled tumor cells in the lower chamber [5],fluorescently labeled tumor cells in the lower chamber [6],fluorescently labeled tumor cells in the lower chamber [7],"peptide internalization after pre-treatment with anti-αvβ3 and -αvβ5 antibodies ([3]; U87, 24 hours, cells pre-treated with anti-αvβ3 (LM609) and anti-αvβ5 (P1F6) mAbs (1:200))","peptide uptake after pre-treatment with both anti-Hsp70 and anti-αvβ3/-αvβ5 mAbs ([3]; U87, 24 hours, combination of antibodies)",cytotoxic effect (MTT test) [8]
NGLTLKNDFSRLEG,378 ± 48,344 ± 57,313 ± 56,301 ± 66,211 ± 41 cells,excluding,211 ± 29 cells,188 ± 47 cells,221 ± 38 cells,–,–,–
CC(C)C[C@H](NC(=O)CNC(=O)[C@@H](N)CC(N)=O)C(=O)N[C@H](C(=O)N[C@@H](CC(C)C)C(=O)N[C@@H](CCCCN)C(=O)N[C@@H](CC(N)=O)C(=O)N[C@@H](CC(=O)O)C(=O)N[C@@H](Cc1ccccc1)C(=O)N[C@@H](CO)C(=O)N[C@@H](CCCNC(=N)N)C(=O)N[C@@H](CC(C)C)C(=O)N[C@@H](CCC(=O)O)C(=O)NCC(=O)NCCC(=O)N[C@@H](CCCNC(=N)N)C(=O)NCC(=O)N[C@@H](CC(=O)O)C(=O)O)[C@@H](C)O [NGL-RGD] (H-NGLTLKNDFSRLEG[βAla]RGD-OH),–,–,–,–,–,–,–,–,–,decrease,significant abrogation,did not reveal the toxic effect
